The source made the active and inactive calls.
Key:
BJ [1] = assay: cytotoxicity toward BJ-TERT-LT-ST fibroblasts, dose response, cell-based, RAS-independent, luminescence (AID 1935); format: functional; conditions: Homo sapiens;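 note: BJ fibroblasts immortalized with TERT plus LT and ST oncogenes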
[2] = cytotoxicity toward DRD oncogenic fibroblasts, dose response, cell-based, non-viral oncogenic, luminescence (AID 1934); format: functional; conditions: Homo sapiens
cells [3] = format: functional, cell-based
[4] = Counterscreen for AddAB inhibitors: absorbance-based bacterial cell-based high throughput dose response assay for inhibitors of bacterial viability. [Related pubchem assays (depositor defined):AID435030, AID449728, AID449731, AID488942, AID488955, AID488956]; format: functional
cells [5] = format: functional, cell-based; remark: listed apart in the source
BJ [6] = assay: cytotoxicity toward BJ-TERT fibroblasts, dose response, cell-based, RAS-independent, luminescence (AID 1933); format: functional; conditions: Homo sapiens
Exodeoxyribonuclease V = Exodeoxyribonuclease V (Escherichia coli (strain K12), UniProt P04993+P07648+P08394); assay: E. coli RecBCD inhibitors, dose response, counter-screen for AddAB inhibitor project, absorbance, V66 E. coli, mutant T4 phage (AID 492957); format: functional, cell-based, Escherichia coli str. K-12 substr. MG1655
[7] = microbe, parasite or virus in culture; format: functional; conditions: Mycobacterium tuberculosis
BJ [8] = assay: cells; format: functional, cell-based; conditions: Homo sapiens
INS1 = assay: beta cell apoptosis inhibitors, cytokine rescue, dose response, luminescence, retest (AID 449756); format: functional, cell-based; conditions: Rattus norvegicus;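 note: cell death triggered by IL-1 beta plus TNF-alpha plus IFN-gamma mixture; protective hits raise ATP signal compared with cytokine alone wells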
BJ [9] = assay: cytotoxicity toward Ras-transformed BJeLR fibroblasts, dose response, cell-based, alamar blue fluorescence, cherrypicked samples (AID 2631); format: functional; conditions: Homo sapiens;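 note: confirmatory dose-response assay in RAS-dependent BJ fibroblasts engineered with TERT, LT and ST, with cytotoxicity read by fluorescence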
[10] = molecular target: T1, E3 ubiquitin-protein ligase XIAP (Homo sapiens, UniProt P98170); assay: Counter Screen using XIAP-Bir3 for Chemical Antagonists of Bir1/2 domains of IAP-family anti-apoptotic proteins. [Related pubchem assays (depositor defined):AID1018, AID1449, AID1514, AID1638, AID1749, AID1750, AID488957, AID488963]
[11] = molecular target: T1, E3 ubiquitin-protein ligase XIAP; assay: XIAP antagonists, biochemical, IAP family, fluorescence polarization (AID 1018); format: functional
[12] = molecular target: T2, Alkaline phosphatase, tissue-nonspecific isozyme (Homo sapiens, UniProt P05186); assay: human TNAP enzyme inhibitors, SAR follow-up, biochemical, luminescent, dose response (AID 1056)
T2 sequence (P05186 whole entry): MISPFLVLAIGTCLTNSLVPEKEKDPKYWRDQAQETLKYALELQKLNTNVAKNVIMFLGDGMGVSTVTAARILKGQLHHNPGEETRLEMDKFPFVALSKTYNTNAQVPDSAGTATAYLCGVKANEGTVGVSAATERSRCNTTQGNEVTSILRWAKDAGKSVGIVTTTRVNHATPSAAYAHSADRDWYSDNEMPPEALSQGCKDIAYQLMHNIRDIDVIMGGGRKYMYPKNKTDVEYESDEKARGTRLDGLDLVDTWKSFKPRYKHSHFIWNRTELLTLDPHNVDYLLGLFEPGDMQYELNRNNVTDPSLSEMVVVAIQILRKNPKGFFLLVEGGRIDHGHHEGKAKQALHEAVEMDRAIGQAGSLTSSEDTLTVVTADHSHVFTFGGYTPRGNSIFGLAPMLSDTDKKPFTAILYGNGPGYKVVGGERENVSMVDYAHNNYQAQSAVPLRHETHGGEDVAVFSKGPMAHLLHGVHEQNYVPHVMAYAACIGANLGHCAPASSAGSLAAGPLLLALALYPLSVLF

[13] = molecular target: Alkaline phosphatase, placental type (Homo sapiens, UniProt P05187); assay: PLAP enzyme inhibitors, confirmation, biochemical, luminescence (AID 1512); format: functional
CHO-K1 = assay: Counterscreen for antagonists of the orexin 1 receptor (OX1R; HCRTR1): Homogeneous time resolved fluorescence (HTRF)-based cell-based dose response assay to identify antagonists of the parental CHO-K1 cell line. [Related pubchem assays (depositor defined):AID434989, AID435008, AID463079, AID485270, AID492963, AID492964, AID492965, AID493232, AID504699, AID504701]; format: functional; conditions: Cricetulus griseus;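 note: potency for inhibition of ATP-stimulated IP1 production as antagonists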
[14] = molecular target: T3, Orexin/Hypocretin receptor type 1 (Homo sapiens, UniProt O43613); assay: Fluorescence-based cell-based high throughput dose response assay for antagonists of the orexin 1 receptor (OX1R; HCRTR1). [Related pubchem assays (depositor defined):AID434989, AID435008, AID463079, AID485270, AID492963, AID492964, AID492965, AID493232, AID504717, AID504718]; format: functional
T3 sequence (O43613 whole entry): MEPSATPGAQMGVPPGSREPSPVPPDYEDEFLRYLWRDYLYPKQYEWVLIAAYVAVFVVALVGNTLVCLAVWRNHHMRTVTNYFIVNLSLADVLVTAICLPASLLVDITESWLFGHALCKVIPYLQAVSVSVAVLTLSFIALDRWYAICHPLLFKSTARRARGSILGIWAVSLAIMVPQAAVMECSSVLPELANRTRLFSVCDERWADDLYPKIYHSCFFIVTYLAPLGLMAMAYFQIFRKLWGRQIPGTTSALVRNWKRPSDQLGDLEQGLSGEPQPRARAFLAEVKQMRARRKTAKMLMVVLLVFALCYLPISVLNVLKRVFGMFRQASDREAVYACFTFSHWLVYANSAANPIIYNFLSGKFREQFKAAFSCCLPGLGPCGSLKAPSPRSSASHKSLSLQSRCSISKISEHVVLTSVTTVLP

[15] = Counterscreen for antagonists of the orexin 1 receptor (OX1R; HCRTR1): Fluorescence-based cell-based high throughput dose response assay to identify antagonists of the parental CHO cell line. [Related pubchem assays (depositor defined):AID434989, AID435008, AID463079, AID485270, AID492963, AID492964, AID492965, AID493232, AID504699, AID504701]; format: functional
[16] = molecular target: T3, Orexin/Hypocretin receptor type 1; assay: Homogeneous Time Resolved Fluorescence (HTRF)-based cell-based high throughput dose response assay for antagonists of the orexin 1 receptor (OX1R; HCRTR1). [Related pubchem assays (depositor defined):AID434989, AID435008, AID463079, AID485270, AID492963, AID492964, AID492965, AID493232, AID504717, AID504718]; format: functional
[17] = inhibitors of intracellular T. cruzi replication, confirmation, NIH3T3 host cells, beta-gal luminescence (AID 2044); format: functional, cell-based;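 note: intracellular parasites grown in NIH/3T3 mouse fibroblasts as host cells; luminescent beta-galactosidase reporter signal from transgenic T. cruzi replicating inside host cells; inhibitors lower the luminescence signal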
Streptococcus = assay: Group A Streptococcus viability loss, dose response, counter-screen for streptokinase expression inhibitor project, luminescence, BacTiterGlo (AID 1915); format: functional, organism-based;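 note: potency for reduction of bacterial viability or growth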
[18] = test system: Streptococcus sp. 'group A'; assay: growth inhibition of control SK(-) GAS strain, dose response, counter-screen for streptokinase expression inhibitor project, luminescence, kanamycin, BacTiterGlo, confirmation (AID 1900); format: functional, organism-based
[19] = cytotoxicity toward NIH3T3 fibroblasts, dose response, counter-screen, cell-based, ATP luminescence, mouse fibroblasts (AID 2010); format: functional;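 note: cells exposed to compound for about 90 hours before reading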
[20] = Luminescence Cell-Based Dose Confirmation HTS to Identify Activators of 5'UTR Stem-Loop Driven Alpha-Synuclein mRNA Translation in H4 Neuroglioblastoma Cells. [Related pubchem assays: 1829 (Project Summary), 1814 (Primary HTS)]; format: functional
H4 = assay: Luminescence Cell-Based Dose Response HTS to Identify Activators of 5'UTR Stem-Loop Driven Prion Protein mRNA Translation in H4 Neuroglioblastoma Cells. [Related pubchem assays: 1829 (Project Summary), 1814 (Primary HTS)]; format: functional; conditions: Homo sapiens
[21] = Luminescence Cell-Based Dose Response HTS to Identify Activators of Luciferase Translation or Activity in H4 […] Cells. [Related pubchem assays: 1829 (Project Summary), 1814 (Primary HTS)]; format: functional
[22] = molecular target: T4, Tyrosine-protein phosphatase non-receptor type 22 (Homo sapiens, UniProt Q9Y2R2); format: functional
T4 sequence (Q9Y2R2 whole entry): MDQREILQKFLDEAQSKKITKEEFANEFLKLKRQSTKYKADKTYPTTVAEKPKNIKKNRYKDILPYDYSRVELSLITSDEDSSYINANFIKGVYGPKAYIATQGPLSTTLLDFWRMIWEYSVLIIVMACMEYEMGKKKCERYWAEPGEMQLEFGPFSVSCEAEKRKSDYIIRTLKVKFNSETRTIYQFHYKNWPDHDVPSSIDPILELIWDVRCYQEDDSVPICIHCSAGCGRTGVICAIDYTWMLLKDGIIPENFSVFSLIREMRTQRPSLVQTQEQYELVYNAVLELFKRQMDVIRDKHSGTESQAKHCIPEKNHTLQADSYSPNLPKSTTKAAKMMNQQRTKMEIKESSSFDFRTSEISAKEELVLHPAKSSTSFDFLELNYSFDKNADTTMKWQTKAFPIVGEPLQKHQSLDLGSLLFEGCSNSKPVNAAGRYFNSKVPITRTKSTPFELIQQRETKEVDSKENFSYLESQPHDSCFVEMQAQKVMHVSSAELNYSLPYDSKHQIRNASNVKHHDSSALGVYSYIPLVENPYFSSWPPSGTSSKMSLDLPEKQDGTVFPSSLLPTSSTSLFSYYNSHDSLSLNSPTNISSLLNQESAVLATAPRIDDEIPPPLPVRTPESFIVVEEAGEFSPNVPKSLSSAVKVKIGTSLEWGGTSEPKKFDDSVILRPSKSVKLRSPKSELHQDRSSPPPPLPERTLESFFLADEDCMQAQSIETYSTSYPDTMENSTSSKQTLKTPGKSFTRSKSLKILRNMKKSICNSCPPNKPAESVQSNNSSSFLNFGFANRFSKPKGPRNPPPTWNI

[23] = molecular target: T4, Tyrosine-protein phosphatase non-receptor type 22; format: functional; remark: listed apart in the source
[24] = molecular target: T5, Tyrosine-protein phosphatase non-receptor type 7 (Homo sapiens, UniProt P35236); format: functional
T5 sequence (P35236 whole entry): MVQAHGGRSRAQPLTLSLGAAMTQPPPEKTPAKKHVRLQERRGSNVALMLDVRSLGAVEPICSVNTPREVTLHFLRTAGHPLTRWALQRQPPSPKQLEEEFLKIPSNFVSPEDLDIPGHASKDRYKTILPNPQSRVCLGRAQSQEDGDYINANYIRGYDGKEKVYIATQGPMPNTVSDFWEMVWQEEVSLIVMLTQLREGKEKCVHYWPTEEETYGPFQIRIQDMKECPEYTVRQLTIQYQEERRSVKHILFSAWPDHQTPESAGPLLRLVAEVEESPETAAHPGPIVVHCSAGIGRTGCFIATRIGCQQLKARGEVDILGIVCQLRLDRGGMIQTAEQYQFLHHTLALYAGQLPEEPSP

[25] = Luminescence Cell-Based Dose Confirmation HTS to Identify Inhibitors of Platelet Dense Granule Release. [Related pubchem assays: 1663 (Primary HTS), 1678 (Summary of Project)]; format: functional
[26] = molecular target: Luciferin 4-monooxygenase (Photinus pyralis, UniProt P08659); assay: firefly luciferase enzyme inhibitors, dose response, biochemical, luminescence (AID 1891)
Large T antigen = Large T antigen (Simian virus 40, UniProt P03070); format: functional, Betapolyomavirus macacae;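 note: Confirmatory-stage PubChem screen for compounds that inhibit SV40 T antigen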
Large T antigen, sequence (P03070 whole entry): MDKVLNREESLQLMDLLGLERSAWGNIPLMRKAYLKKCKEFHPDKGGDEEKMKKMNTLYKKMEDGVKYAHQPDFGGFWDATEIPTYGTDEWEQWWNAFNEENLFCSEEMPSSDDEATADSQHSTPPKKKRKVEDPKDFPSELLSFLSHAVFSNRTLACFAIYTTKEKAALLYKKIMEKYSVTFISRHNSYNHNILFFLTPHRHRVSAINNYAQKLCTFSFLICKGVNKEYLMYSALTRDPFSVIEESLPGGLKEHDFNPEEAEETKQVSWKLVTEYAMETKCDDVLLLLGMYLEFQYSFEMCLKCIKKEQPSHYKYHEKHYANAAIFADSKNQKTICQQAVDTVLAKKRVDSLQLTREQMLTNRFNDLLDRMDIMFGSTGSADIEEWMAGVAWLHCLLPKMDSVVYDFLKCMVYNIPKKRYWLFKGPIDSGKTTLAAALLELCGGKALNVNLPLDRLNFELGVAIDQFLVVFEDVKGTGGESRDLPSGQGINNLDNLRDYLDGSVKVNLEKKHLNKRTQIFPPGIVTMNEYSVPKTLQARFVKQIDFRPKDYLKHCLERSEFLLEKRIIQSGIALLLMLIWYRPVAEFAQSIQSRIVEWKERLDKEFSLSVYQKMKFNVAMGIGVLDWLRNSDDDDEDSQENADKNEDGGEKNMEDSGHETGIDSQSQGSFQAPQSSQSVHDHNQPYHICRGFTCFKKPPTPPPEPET

Alkaline phosphatase, placental type, sequence (P05187 whole entry): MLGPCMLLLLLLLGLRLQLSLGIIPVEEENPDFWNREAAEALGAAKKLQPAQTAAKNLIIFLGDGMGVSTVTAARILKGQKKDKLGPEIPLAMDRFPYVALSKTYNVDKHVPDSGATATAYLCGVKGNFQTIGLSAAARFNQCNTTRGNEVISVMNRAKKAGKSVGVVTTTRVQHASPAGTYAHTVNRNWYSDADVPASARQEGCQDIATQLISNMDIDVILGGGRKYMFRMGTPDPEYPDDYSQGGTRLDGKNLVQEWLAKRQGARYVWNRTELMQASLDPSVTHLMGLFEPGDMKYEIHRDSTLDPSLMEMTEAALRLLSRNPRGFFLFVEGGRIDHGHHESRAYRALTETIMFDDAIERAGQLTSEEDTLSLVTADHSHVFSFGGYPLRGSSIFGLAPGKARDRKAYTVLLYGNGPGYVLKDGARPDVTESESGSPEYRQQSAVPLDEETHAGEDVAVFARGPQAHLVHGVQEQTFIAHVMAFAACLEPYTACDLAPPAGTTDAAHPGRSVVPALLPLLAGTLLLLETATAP
Exodeoxyribonuclease V, sequence (P04993 whole entry): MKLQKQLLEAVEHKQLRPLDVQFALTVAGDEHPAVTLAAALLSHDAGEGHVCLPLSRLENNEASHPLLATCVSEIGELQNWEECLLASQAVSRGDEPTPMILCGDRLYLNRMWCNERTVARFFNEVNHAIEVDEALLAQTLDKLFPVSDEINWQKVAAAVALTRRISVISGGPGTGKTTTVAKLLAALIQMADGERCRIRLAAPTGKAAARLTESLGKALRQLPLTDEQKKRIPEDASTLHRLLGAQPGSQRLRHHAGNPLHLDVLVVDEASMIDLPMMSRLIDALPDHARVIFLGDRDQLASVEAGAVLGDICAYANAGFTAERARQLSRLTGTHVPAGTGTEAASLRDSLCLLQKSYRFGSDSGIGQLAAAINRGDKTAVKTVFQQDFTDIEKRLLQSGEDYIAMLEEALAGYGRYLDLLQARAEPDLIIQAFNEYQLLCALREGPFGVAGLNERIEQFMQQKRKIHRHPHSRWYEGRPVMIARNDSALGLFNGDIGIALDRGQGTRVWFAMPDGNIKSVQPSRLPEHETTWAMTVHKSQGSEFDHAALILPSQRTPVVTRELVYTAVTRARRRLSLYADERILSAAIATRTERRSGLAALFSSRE
Exodeoxyribonuclease V, sequence (P07648 whole entry): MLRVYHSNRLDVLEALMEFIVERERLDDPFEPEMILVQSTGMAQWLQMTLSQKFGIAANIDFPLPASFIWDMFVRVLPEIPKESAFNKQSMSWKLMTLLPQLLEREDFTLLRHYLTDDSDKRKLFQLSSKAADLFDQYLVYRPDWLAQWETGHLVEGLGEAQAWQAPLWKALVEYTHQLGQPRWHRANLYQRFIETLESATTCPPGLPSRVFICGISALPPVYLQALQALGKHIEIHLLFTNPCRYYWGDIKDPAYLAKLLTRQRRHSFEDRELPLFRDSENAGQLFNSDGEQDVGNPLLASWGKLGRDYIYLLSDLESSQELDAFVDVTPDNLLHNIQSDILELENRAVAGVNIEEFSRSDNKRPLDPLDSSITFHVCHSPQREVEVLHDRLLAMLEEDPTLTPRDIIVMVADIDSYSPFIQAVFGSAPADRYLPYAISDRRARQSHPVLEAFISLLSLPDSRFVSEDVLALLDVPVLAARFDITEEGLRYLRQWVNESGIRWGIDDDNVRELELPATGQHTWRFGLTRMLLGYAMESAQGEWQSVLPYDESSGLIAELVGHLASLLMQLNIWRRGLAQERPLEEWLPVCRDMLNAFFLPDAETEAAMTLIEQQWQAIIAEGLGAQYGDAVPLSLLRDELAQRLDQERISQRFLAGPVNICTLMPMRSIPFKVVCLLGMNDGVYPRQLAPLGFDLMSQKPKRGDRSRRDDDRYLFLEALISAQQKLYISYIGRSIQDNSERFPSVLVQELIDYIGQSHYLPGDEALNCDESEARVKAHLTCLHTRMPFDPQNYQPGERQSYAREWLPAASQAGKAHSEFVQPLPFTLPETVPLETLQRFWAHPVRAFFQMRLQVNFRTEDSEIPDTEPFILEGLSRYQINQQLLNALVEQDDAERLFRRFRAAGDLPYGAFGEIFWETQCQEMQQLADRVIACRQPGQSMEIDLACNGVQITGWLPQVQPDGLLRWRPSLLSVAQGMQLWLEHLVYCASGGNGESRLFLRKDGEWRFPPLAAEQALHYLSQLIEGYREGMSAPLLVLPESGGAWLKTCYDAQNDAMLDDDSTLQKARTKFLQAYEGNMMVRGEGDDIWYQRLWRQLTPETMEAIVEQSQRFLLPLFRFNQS
Exodeoxyribonuclease V, sequence (P08394 whole entry): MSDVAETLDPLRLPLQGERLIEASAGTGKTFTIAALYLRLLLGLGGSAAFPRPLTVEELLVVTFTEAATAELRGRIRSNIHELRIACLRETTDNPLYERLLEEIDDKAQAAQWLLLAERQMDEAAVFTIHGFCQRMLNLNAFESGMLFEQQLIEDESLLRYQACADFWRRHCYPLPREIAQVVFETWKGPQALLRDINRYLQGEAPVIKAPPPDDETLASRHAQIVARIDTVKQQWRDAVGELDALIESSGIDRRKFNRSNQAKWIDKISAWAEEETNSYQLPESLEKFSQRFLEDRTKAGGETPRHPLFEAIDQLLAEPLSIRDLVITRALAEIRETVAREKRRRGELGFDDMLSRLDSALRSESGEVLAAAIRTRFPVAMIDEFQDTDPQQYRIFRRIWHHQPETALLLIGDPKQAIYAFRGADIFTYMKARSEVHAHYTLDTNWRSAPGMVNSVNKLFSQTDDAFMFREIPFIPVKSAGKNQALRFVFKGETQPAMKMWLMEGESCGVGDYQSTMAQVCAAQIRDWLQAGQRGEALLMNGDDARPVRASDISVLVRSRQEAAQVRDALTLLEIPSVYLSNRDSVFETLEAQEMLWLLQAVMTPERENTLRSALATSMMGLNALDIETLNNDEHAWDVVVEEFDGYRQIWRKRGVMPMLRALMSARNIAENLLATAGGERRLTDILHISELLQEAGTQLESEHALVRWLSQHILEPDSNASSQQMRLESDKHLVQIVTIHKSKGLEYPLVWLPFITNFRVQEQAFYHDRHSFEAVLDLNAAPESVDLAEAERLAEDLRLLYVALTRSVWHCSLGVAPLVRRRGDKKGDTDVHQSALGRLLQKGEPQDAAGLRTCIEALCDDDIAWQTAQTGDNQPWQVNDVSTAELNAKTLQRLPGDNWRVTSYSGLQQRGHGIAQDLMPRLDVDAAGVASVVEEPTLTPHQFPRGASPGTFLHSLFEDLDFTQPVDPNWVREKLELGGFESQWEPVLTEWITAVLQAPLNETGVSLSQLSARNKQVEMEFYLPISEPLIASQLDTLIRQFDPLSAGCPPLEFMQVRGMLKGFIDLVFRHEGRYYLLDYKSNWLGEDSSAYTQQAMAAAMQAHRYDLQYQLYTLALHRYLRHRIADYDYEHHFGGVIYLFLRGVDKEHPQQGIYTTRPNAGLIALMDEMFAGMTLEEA
T1 sequence (P98170 whole entry): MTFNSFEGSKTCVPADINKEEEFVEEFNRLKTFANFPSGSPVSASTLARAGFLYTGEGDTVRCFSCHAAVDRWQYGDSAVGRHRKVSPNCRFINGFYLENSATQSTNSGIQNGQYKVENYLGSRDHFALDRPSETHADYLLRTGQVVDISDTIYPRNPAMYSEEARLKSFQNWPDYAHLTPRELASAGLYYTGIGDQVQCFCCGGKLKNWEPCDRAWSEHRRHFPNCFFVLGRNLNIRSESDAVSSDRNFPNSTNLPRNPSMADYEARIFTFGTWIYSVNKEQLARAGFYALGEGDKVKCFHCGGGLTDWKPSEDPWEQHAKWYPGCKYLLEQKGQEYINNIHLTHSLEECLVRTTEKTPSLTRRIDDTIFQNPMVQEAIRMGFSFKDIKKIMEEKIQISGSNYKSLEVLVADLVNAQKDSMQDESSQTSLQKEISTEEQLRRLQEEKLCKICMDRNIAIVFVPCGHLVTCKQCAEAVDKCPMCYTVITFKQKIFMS

Compound: COc1ccc(N/N=C(/N=Nc2nc(C)cc(O)n2)c2ccccc2)cc1
- EC50 (BJ [1]): 4.21 µM (active)
- EC50 [2]: 5.72 µM (active)
- EC50 (cells [3]): 5.67 µM (active)
- IC50 [4]: > 119 µM (inactive)
- EC50 (cells [5]): 3.44 µM (active)
- EC50 (BJ [6]): 4.09 µM (active)
- IC50 (Exodeoxyribonuclease V): > 119 µM (inactive)
- CC50 [7]: 6.39 µM (active)
- EC50 (BJ [8]): 3.68 µM (active)
- AC50 (INS1): < 195 nM (active)
- EC50 (BJ [9]): 615 nM (active)

Compound: Cc1ccc(C(=O)N/N=C\c2ccccc2[N+](=O)[O-])cn1
- IC50 [10]: > 100 µM (inactive)
- IC50 [11]: > 100 µM (not active)

Compound: C=CCn1c(SCC(=O)c2ccc(O)c(O)c2)nnc1-c1ccc(C(C)(C)C)cc1
- IC50 [12]: > 100 µM (inactive)
- IC50 [13]: 97.5 µM (active)

Compound: COC(=O)C(C(C)=O)C1=C/C(=N\S(=O)(=O)c2ccc(C)cc2)c2ccccc2C1=O (centres undefined)
- IC50 (CHO-K1): 53.7 µM (inactive)
- IC50 [14]: 2.83 µM (active)
- IC50 [15]: > 49.8 µM (inactive)
- IC50 [16]: 414 nM (active)

Compound: CCOC(=O)C1=C(C)N=C2C(=C(O)c3ccccc32)C1c1ccc([N+](=O)[O-])o1 (centres undefined)
- EC50 [17]: 1.43 µM (active)
- IC50 [4]: > 119 µM (inactive)
- EC50 (Streptococcus): 29.9 µM (active)
- EC50 [18]: 2.81 µM (active)
- EC50 [19]: > 60 µM (not active)
- IC50 (Exodeoxyribonuclease V): > 119 µM (inactive)
- EC50 [20]: > 120 µM (not active)
- EC50 (H4): > 120 µM (not active)
- EC50 [21]: > 120 µM (not active)

Compound: COC(=O)C(C(=O)NCC1CCCO1)C1CCCCCC1 (centres undefined)
- IC50 [22]: > 79.4 µM (inactive)
- IC50 [23]: > 79.4 µM (inactive)
- IC50 [24]: > 79.4 µM (inactive)
- EC50 [25]: > 112 µM (not active)
- EC50 [26]: > 112 µM (not active)

Compound: Cn1c(SCC(=O)c2ccc(O)c(O)c2)nnc1-c1cccs1
- IC50 [12]: > 100 µM (inactive)
- IC50 (Large T antigen): > 100 µM (active)
- IC50 [13]: 4.9 µM (active)

Compound: Cc1cc(Cl)ccc1OCC(=O)OCC(=O)Nc1ccc(F)c([N+](=O)[O-])c1
- IC50 [22]: > 79.4 µM (inactive)
- IC50 [23]: > 79.4 µM (inactive)
- IC50 [24]: > 79.4 µM (inactive)

From ChEMBL document CHEMBL1201862, “PubChem BioAssay data set” (2004)
